From publication PMC4392179 (Nature medicine, 2015)

Tests used:
[1] = Aqueous solubility; type: physicochemical; conditions: sodium salt
[2] = biological target: T1, AIM2 inflammasome (Mus musculus, UniProt Q91VJ1); assay: AIM2 inflammasome activation: BMDM stimulated with LPS and transfected Poly; type: cell-based
T1 sequence (Q91VJ1 1-354): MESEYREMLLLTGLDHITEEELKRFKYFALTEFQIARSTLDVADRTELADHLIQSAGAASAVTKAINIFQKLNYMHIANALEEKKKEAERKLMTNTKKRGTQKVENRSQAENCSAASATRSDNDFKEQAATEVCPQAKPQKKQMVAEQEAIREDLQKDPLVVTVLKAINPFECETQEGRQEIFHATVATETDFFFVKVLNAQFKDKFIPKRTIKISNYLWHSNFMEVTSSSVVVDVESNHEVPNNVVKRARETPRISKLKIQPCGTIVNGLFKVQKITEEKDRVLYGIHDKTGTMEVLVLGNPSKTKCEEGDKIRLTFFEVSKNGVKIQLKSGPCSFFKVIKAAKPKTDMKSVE

[3] = biological target: NLRC4 (Mus musculus, UniProt Q3UP24); assay: NLRC4 inflammasome activation: BMDM stimulated with LPS and S. typhimurium; type: cell-based; conditions: for NLRC4-stimulated IL-1β secretion / NLRC4-stimulated TNF-α secretion / expression of pro-IL-1β (and pro-caspase-1) in cell lysates: LPS and S. typhimurium; for NLRC4-stimulated IL-1β secretion / NLRC4-stimulated TNF-α secretion: MCC950 up to 10 µM, parthenolide 10 µM
Chain of NLRC4 (Q3UP24 whole entry): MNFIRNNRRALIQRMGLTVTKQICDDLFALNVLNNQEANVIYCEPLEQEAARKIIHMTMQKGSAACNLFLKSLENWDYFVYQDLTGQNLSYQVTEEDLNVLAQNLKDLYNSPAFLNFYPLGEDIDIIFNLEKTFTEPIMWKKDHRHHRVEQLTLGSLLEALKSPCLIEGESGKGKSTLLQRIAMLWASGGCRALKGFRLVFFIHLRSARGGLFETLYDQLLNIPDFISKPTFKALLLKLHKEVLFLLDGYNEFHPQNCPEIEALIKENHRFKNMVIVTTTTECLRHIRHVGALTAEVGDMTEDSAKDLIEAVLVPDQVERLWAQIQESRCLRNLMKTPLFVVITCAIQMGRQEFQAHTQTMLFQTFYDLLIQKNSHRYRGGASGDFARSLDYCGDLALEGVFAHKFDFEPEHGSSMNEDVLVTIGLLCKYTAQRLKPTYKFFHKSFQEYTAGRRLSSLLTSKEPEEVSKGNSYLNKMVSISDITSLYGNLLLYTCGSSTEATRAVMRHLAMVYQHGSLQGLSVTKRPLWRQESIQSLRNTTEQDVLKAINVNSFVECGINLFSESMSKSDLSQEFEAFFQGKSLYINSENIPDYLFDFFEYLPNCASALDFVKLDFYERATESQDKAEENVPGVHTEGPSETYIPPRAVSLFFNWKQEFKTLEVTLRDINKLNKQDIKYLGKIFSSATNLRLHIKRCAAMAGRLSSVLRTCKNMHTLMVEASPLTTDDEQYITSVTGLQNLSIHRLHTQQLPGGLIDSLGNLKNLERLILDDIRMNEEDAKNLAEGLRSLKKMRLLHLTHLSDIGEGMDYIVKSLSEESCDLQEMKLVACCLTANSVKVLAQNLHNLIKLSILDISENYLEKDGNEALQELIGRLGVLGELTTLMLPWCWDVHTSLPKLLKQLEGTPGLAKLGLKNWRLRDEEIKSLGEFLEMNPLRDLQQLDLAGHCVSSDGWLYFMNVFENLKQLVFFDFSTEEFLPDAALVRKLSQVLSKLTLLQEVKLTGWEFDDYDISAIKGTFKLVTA

[4] = tested on: TLR signalling; assay: Priming / TLR signalling: BMDM pre-treated and stimulated with LPS or Poly; type: cell-based, mouse; conditions: for LPS-induced (TLR4) TNF-α secretion / Poly(A:U)-induced (TLR3) TNF-α secretion: BMDM, ELISA
[5] = tested on: NLRP1; type: cell-based
[6] = tested on: K+ efflux; assay: Intracellular K+ by ICP-OES in BMDM; type: cell-based, mouse; conditions: LPS primed BMDM, MCC950 10–300 nM
[7] = tested on: EAE; assay: Experimental autoimmune encephalomyelitis; type: in vivo, C57BL/6 mice
[8] = tested on: NLRP1; assay: Nlrp1a Q593P activating mutation mice; type: in vivo; conditions: NLRP1 mutant mice, 20 mg/kg i.p. every second day for 9 days; P = 0.7
[9] = biological target: human ether-a-go-go (hERG) potassium channel (Homo sapiens, UniProt Q12809); assay: cell-based
Chain of human ether-a-go-go (hERG) potassium channel (Q12809 whole entry): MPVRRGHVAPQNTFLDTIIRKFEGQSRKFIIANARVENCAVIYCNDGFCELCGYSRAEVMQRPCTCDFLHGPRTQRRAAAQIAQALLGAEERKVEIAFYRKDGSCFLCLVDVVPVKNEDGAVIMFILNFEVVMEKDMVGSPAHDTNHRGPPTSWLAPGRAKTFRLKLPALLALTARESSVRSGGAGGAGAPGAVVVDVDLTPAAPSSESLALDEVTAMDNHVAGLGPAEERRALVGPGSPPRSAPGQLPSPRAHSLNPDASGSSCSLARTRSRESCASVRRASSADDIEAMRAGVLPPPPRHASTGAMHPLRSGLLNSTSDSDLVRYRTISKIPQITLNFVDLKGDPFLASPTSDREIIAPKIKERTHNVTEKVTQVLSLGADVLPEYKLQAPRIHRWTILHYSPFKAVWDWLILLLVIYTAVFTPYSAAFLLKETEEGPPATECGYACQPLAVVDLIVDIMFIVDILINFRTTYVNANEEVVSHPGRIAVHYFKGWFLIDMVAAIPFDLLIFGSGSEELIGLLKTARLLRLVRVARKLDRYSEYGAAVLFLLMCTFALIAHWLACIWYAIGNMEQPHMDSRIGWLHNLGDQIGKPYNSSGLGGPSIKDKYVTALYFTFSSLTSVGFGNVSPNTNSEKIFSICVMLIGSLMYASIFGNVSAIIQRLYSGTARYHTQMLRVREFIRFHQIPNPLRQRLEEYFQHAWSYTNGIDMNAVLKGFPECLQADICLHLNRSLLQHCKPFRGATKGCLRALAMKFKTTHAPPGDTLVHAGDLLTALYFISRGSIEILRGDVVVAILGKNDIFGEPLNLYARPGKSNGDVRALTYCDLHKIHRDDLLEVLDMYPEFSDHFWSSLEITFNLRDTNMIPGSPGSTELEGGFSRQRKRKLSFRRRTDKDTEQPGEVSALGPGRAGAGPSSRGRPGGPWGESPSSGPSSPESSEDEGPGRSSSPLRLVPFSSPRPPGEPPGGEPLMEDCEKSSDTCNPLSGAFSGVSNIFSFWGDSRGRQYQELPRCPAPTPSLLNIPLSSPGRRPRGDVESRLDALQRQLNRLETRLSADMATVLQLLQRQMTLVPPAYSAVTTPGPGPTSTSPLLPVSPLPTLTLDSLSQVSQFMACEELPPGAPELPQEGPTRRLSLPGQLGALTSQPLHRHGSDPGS

[10] = Stability with human liver microsomes
[11] = Stability with mouse liver microsomes
[12] = tested on: Ca2+ flux; assay: ATP induced Ca2+ flux in BMDM; conditions: WT or Ice−/− BMDM
[13] = biological target: T2, CYP 1A2 (Homo sapiens, UniProt P05177); assay: CYP inhibition in human liver microsomes, substrate cocktail; conditions: 10 µM
T2 sequence (P05177 1-516): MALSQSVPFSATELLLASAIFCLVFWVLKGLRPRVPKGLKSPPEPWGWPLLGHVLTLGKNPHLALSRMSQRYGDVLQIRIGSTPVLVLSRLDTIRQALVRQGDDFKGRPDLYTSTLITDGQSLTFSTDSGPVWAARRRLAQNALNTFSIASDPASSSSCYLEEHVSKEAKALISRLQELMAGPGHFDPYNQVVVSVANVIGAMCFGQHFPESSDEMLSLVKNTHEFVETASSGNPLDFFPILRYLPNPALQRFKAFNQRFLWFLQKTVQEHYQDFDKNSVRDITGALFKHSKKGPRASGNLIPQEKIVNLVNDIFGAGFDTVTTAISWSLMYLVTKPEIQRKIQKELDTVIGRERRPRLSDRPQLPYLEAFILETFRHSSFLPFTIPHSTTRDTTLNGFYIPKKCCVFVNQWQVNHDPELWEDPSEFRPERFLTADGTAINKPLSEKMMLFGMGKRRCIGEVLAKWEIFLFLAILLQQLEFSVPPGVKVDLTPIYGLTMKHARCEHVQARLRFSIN

[14] = biological target: CYP 2C9 (Homo sapiens, UniProt P11712); assay: as above; conditions: 10 µM
Chain of CYP 2C9 (P11712 whole entry): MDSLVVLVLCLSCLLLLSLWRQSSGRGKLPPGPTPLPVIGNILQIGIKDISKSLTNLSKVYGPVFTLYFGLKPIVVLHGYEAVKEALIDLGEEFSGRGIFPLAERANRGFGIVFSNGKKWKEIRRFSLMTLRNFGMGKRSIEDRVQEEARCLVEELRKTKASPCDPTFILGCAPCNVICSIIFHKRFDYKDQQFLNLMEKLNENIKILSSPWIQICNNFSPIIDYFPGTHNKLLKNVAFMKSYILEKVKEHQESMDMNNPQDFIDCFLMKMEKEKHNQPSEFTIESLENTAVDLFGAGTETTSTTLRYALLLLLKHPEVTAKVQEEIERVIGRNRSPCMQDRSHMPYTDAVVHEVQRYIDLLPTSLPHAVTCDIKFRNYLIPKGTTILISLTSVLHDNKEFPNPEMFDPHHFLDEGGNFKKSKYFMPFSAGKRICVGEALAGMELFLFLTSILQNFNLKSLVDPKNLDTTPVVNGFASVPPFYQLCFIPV

[15] = biological target: CYP 2C19 (Homo sapiens, UniProt P33261); assay: as above; conditions: 10 µM
Chain of CYP 2C19 (P33261 whole entry): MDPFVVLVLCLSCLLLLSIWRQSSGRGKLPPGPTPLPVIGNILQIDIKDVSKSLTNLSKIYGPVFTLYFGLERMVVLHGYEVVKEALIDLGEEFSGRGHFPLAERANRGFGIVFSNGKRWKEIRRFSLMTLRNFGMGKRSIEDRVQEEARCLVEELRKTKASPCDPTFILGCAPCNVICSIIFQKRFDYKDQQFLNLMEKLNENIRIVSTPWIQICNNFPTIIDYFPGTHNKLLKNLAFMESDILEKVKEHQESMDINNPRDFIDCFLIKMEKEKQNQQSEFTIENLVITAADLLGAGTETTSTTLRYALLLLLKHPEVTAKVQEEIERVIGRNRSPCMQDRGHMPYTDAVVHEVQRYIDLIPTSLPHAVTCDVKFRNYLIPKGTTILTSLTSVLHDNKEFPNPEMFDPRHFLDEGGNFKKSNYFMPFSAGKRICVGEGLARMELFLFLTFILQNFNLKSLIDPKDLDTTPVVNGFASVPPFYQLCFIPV

[16] = biological target: CYP 2D6 (Homo sapiens, UniProt P10635); assay: as above; conditions: 10 µM
Chain of CYP 2D6 (P10635 whole entry): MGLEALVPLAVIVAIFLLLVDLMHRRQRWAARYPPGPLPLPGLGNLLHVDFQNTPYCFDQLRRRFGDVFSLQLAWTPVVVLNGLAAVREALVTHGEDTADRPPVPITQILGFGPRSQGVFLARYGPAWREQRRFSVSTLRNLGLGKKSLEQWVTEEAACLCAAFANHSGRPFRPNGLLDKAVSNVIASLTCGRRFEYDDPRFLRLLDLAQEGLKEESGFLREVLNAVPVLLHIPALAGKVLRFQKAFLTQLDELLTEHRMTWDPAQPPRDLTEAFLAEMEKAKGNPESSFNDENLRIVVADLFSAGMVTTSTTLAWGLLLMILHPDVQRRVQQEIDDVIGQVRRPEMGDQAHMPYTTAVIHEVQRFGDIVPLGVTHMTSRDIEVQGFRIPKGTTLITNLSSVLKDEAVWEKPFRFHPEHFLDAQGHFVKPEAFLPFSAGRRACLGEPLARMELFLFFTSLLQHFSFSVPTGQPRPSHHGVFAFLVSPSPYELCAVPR

[17] = biological target: CYP 3A4 (Homo sapiens, UniProt P08684); assay: as above; conditions: 10 µM
Chain of CYP 3A4 (P08684 whole entry): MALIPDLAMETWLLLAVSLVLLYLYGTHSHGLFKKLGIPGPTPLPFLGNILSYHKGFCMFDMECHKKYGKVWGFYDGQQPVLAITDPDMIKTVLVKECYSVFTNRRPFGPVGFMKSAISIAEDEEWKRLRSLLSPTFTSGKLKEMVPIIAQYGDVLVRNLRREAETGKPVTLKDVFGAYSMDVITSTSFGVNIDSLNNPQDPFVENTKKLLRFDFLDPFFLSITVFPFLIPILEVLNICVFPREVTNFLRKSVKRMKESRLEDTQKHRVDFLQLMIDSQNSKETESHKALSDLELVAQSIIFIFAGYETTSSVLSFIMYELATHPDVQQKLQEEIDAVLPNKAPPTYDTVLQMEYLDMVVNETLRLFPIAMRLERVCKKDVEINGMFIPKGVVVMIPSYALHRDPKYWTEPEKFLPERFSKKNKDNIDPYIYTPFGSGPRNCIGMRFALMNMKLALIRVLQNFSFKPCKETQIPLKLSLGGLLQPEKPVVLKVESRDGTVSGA

[18] = LPS and Poly(dA:dT), Bayer compound 40 µM

CC(C)(O)c1coc(S(=O)(=O)[N-]C(=O)Nc2c3c(cc4c2CCC4)CCC3)c1.[Na+] [MCC950 sodium salt]
solubility in aqueous solutions [1]: highly soluble

O=C(O)c1ccc(OCCCc2ccc(OCCCC3CCCCC3)cc2)c(C(=O)N2CCC(C(=O)O)CC2)c1 [Bayer compound, 1-(5-carboxy-2{3-[4-(3-cyclohexylpropoxy)phenyl]propoxy}benzoyl)piperidine-4-carboxylic acid, reference compound]
IL-1β secretion [2, 18]: inhibited | Poly(dA:dT) stimulated caspase-1 activation ([2]; Western blot): inhibited

C=C1C(=O)O[C@H]2[C@H]1CC/C(C)=C/CC[C@@]1(C)O[C@@H]21 [parthenolide, reference compound]
NLRC4-stimulated IL-1β secretion [3]: attenuated | NLRC4-stimulated TNF-α secretion [3]: attenuated | expression of pro-IL-1β (and pro-caspase-1) in cell lysates ([3]; Western blot): attenuated | LPS-induced (TLR4) TNF-α secretion [4]: abrogated | Poly(A:U)-induced (TLR3) TNF-α secretion [4]: abrogated

CC(C)(O)c1coc(S(=O)(=O)NC(=O)Nc2c3c(cc4c2CCC4)CCC3)c1 [MCC950, 1-(1,2,3,5,6,7-hexahydro-s-indacen-4-yl)-3-[4-(1-hydroxy-1-methyl-ethyl)-furan-2-sulfonyl]urea]
NLRC4-stimulated IL-1β secretion [3]: not inhibited | NLRC4-stimulated TNF-α secretion [3]: not inhibited | expression of pro-IL-1β (and pro-caspase-1) in cell lysates ([3]; Western blot): not substantially affected | caspase-1 activation / IL-1β processing in response to S. typhimurium ([3]; Western blot): did not inhibit | IL-1β secretion [2, 18]: did not attenuate | TNF-α secretion [2, 18]: did not attenuate | LPS stimulated induction of NLRP3 and pro-IL-1β ([4]; BMDM pre-treated, LPS 4 h, Western blot): not affected | LPS-induced (TLR4) TNF-α secretion [4]: did not affect | Poly(A:U)-induced (TLR3) TNF-α secretion [4]: did not affect | ASC speck formation [5]: not decreased | K+ efflux triggered by nigericin, ATP and SiO2 [6]: did not prevent | EAE onset and severity (clinical scores) ([7]; 10 mg/kg i.p. day 0, 1, 2 and every 2 days thereafter): delayed the onset and reduced the severity | frequencies of IL-17 and IFN-γ producing CD3+ T cells in brain mononuclear cells ([7]; day 22, vs PBS-treated mice): modestly reduced | serum concentrations of IL-18 [8]: did not significantly alter | IC50 [9]: > 30 µM | compound remaining after 60 min [10]: more than 70% | compound remaining after 60 min [11]: more than 70% | ATP induced increase in intracellular Ca2+ [12]: did not substantially affect | inhibition of CYP 1A2 [13]: less than 15% | inhibition of CYP 2C9 [14]: less than 15% | inhibition of CYP 2C19 [15]: less than 15% | inhibition of CYP 2D6 [16]: less than 15% | inhibition of CYP 3A4 [17]: less than 15%
